pEC50: −log10 of the molar value.
Experiments:
[1] = tested on: recombinant NL4-3 virus (nef section replaced with Renilla luciferase gene) in MT-2 cells; assay: HIV cell culture assay (antiviral activity, luciferase readout); type: cell-based; settings: NL43, MT-2 cells infected for 4-5 days with recombinant NL4-3 Renilla luciferase virus
Method: HIV cell culture assay—MT-2 cells, 293T cells and the proviral DNA clone of NL4-3 virus were obtained from the NIH AIDS Research and Reference Reagent Program. MT-2 cells were propagated in RPMI 1640 media supplemented with 10% heat inactivated fetal bovine serum (FBS), […]. The 293T cells were propagated in DMEM media supplemented with 10% heat inactivated FBS, […]. A recombinant NL4-3 proviral clone, in which a section of the nef gene was replaced with the Renilla luciferase gene, was used to make the reference virus used in these studies. The recombinant virus was prepared through transfection of the recombinant NL4-3 proviral clone into 293T cells using Transit-293 Transfection Reagent from Mirus Bio LLC (Madison, WI). Supernatent was harvested after 2-3 days and the amount of virus present was titered in MT-2 cells using luciferase enzyme activity as a marker by measuring luciferase enzyme activity. Luciferase was quantitated using the EnduRen Live Cell Substrate from Promega (Madison, WI). Antiviral activities of compounds toward the recombinant virus were quantified by measuring luciferase activity in MT-2 cells infected for 4-5 days with the recombinant virus in the presence of serial dilutions of the compound.
The 50% effective concentration (EC50) was calculated by using the exponential form of the median effect equation where (Fa)=1/[1+(ED50/drug conc.)m] (Johnson VA, Byington RT. Infectivity Assay. In Techniques in HIV Research. ed. Aldovini A, Walker BD. 71-76. New York: Stockton Press. 1990). The 50% inhibitory concentration (EC50) was calculated by using the exponential form of the median effect equation where percent inhibition=1/[1+(EC50/drug concentration)m], where m is a parameter that reflects the slope of the concentration-response curve.

[2] = Compound cytotoxicity, XTT-based colorimetric assay; type: cell-based; settings: human; uninfected MT2 cells, day 4, XTT assay
Method: Compound cytotoxicity and the corresponding CC50 values were determined using the same protocol as described in the antiviral assay except that uninfected cells were used. Cytotoxicity was assessed on day 4 in uninfected MT2 cells by using a XTT (2,3-bis[2-Methoxy-4-nitro-5-sulfophenyl]-2H-tetrazolium-5-carboxyanilide inner salt)-based colorimetric assay (Sigma-Aldrich, St Louis, Mo).

Structure (SMILES)	pEC50 [1]	CC50 at 4 day [2]
CC(C)COc1ccc2c(=O)n(-c3ccc(Cl)c4c(NS(C)(=O)=O)nn(C)c34)c([C@H](Cc3cc(F)cc(F)c3)NC(=O)Cn3nc(C(F)F)c4c3C(F)(F)[C@@H]3C[C@H]43)nc2c1 [Example 12, N—((S)-1-(3-(4-chloro-1-methyl-3-(methylsulfonamido)-1H-indazol-7-yl)-7-isobutoxy-4-oxo-3,4-dihydroquinazolin-2-yl)-2-(3,5-difluorophenyl)ethyl)-2-((3bS,4aR)-3-(difluoromethyl)-5,5-difluoro-3b,4,4a,5-tetrahydro-1H-cyclopropa[3,4]cyclopenta[1,2-c]pyrazol-1-yl)acetamide]	9.96	> 1000 nM
CC(C)[C@H](C)Oc1ccc2c(=O)n(-c3ccc(Cl)c4c(NS(C)(=O)=O)nn(C)c34)c([C@H](Cc3cc(F)cc(F)c3)NC(=O)Cn3nc(C(F)F)c4c3C(F)(F)[C@@H]3C[C@H]43)nc2c1 [Example 13, N—((S)-1-(3-(4-chloro-1-methyl-3-(methylsulfonamido)-1H-indazol-7-yl)-7-(((S)-3-methylbutan-2-yl)oxy)-4-oxo-3,4-dihydroquinazolin-2-yl)-2-(3,5-difluorophenyl)ethyl)-2-((3bS,4aR)-3-(difluoromethyl)-5,5-difluoro-3b,4,4a,5-tetrahydro-1H-cyclopropa[3,4]cyclopenta[1,2-c]pyrazol-1-yl)acetamide]	9.62	> 1000 nM
Cc1ccc2c(=O)n(-c3ccc(Cl)c4c(NS(C)(=O)=O)nn(C)c34)c([C@H](Cc3cc(F)cc(F)c3)NC(=O)Cn3nc(C(F)F)c4c3C(F)(F)[C@@H]3C[C@H]43)nc2c1 [Example 15, N—((S)-1-(3-(4-chloro-1-methyl-3-(methylsulfonamido)-1H-indazol-7-yl)-7-methyl-4-oxo-3,4-dihydroquinazolin-2-yl)-2-(3,5-difluorophenyl)ethyl)-2-((3bS,4aR)-3-(difluoromethyl)-5,5-difluoro-3b,4,4a,5-tetrahydro-1H-cyclopropa[3,4]cyclopenta[1,2-c]pyrazol-1-yl)acetamide]	10.15	> 1000 nM
CCc1ccc2c(=O)n(-c3ccc(Cl)c4c(NS(C)(=O)=O)nn(C)c34)c([C@H](Cc3cc(F)cc(F)c3)NC(=O)Cn3nc(C(F)F)c4c3C(F)(F)[C@@H]3C[C@H]43)nc2c1 [Example 16, N—((S)-1-(3-(4-chloro-1-methyl-3-(methylsulfonamido)-1H-indazol-7-yl)-7-ethyl-4-oxo-3,4-dihydroquinazolin-2-yl)-2-(3,5-difluorophenyl)ethyl)-2-((3bS,4aR)-3-(difluoromethyl)-5,5-difluoro-3b,4,4a,5-tetrahydro-1H-cyclopropa[3,4]cyclopenta[1,2-c]pyrazol-1-yl)acetamide]	10.08	> 1000 nM
CC(F)(F)c1ccc2c(=O)n(-c3ccc(Cl)c4c(NS(C)(=O)=O)nn(CC(F)F)c34)c([C@H](Cc3cc(F)cc(F)c3)NC(=O)Cn3nc(C(F)F)c4c3C(F)(F)[C@@H]3C[C@H]43)nc2c1 [Example 17, N—((S)-1-(3-(4-chloro-1-(2,2-difluoroethyl)-3-(methylsulfonamido)-1H-indazol-7-yl)-7-(1,1-difluoroethyl)-4-oxo-3,4-dihydroquinazolin-2-yl)-2-(3,5-difluorophenyl)ethyl)-2-((3bS,4aR)-3-(difluoromethyl)-5,5-difluoro-3b,4,4a,5-tetrahydro-1H-cyclopropa[3,4]cyclopenta[1,2-c]pyrazol-1-yl)acetamide]	10.08	> 1000 nM
CC(F)(F)c1ccc2c(=O)n(-c3ccc(Cl)c4c(NS(=O)(=O)C5CC5)nn(CC(F)F)c34)c([C@H](Cc3cc(F)cc(F)c3)NC(=O)Cn3nc(C(F)F)c4c3C(F)(F)[C@@H]3C[C@H]43)nc2c1 [Example 18, N—((S)-1-(3-(4-chloro-3-(cyclopropanesulfonamido)-1-(2,2-difluoroethyl)-1H-indazol-7-yl)-7-(1,1-difluoroethyl)-4-oxo-3,4-dihydroquinazolin-2-yl)-2-(3,5-difluorophenyl)ethyl)-2-((3bS,4aR)-3-(difluoromethyl)-5,5-difluoro-3b,4,4a,5-tetrahydro-1H-cyclopropa[3,4]cyclopenta[1,2-c]pyrazol-1-yl)acetamide]	10.16	> 1000 nM
CCCc1ccc2c(=O)n(-c3ccc(Cl)c4c(NS(C)(=O)=O)nn(C)c34)c([C@H](Cc3cc(F)cc(F)c3)NC(=O)Cn3nc(C(F)F)c4c3C(F)(F)[C@@H]3C[C@H]43)nc2c1 [Example 19, N—((S)-1-(3-(4-chloro-1-methyl-3-(methylsulfonamido)-1H-indazol-7-yl)-4-oxo-7-propyl-3,4-dihydroquinazolin-2-yl)-2-(3,5-difluorophenyl)ethyl)-2-((3bS,4aR)-3-(difluoromethyl)-5,5-difluoro-3b,4,4a,5-tetrahydro-1H-cyclopropa[3,4]cyclopenta[1,2-c]pyrazol-1-yl)acetamide]	10.20	> 1000 nM
CCC(F)(F)c1ccc2c(=O)n(-c3ccc(Cl)c4c(NS(C)(=O)=O)nn(C)c34)c([C@H](Cc3cc(F)cc(F)c3)NC(=O)Cn3nc(C(F)F)c4c3C(F)(F)[C@@H]3C[C@H]43)nc2c1 [Example 20, N—((S)-1-(3-(4-chloro-1-methyl-3-(methylsulfonamido)-1H-indazol-7-yl)-7-(1,1-difluoropropyl)-4-oxo-3,4-dihydroquinazolin-2-yl)-2-(3,5-difluorophenyl)ethyl)-2-((3bS,4aR)-3-(difluoromethyl)-5,5-difluoro-3b,4,4a,5-tetrahydro-1H-cyclopropa[3,4]cyclopenta[1,2-c]pyrazol-1-yl)acetamide]	9.91	> 1000 nM
Cn1nc(NS(C)(=O)=O)c2c(Cl)ccc(-n3c([C@H](Cc4cc(F)cc(F)c4)NC(=O)Cn4nc(C(F)F)c5c4C(F)(F)[C@@H]4C[C@H]54)nc4cc(CCC(F)(F)F)ccc4c3=O)c21 [Example 21, N—((S)-1-(3-(4-chloro-1-methyl-3-(methylsulfonamido)-1H-indazol-7-yl)-4-oxo-7-(3,3,3-trifluoropropyl)-3,4-dihydroquinazolin-2-yl)-2-(3,5-difluorophenyl)ethyl)-2-((3bS,4aR)-3-(difluoromethyl)-5,5-difluoro-3b,4,4a,5-tetrahydro-1H-cyclopropa[3,4]cyclopenta[1,2-c]pyrazol-1-yl)acetamide]	9.91	> 1000 nM
Cn1nc(NS(C)(=O)=O)c2c(CCC(F)(F)F)ccc(-n3c([C@H](Cc4cc(F)cc(F)c4)NC(=O)Cn4nc(C(F)F)c5c4C(F)(F)[C@@H]4C[C@H]54)nc4cc(CCC(F)(F)F)ccc4c3=O)c21 [Example 22, 2-((3bS,4aR)-3-(difluoromethyl)-5,5-difluoro-3b,4,4a,5-tetrahydro-1H-cyclopropa[3,4]cyclopenta[1,2-c]pyrazol-1-yl)-N—((S)-2-(3,5-difluorophenyl)-1-(3-(1-methyl-3-(methylsulfonamido)-4-(3,3,3-trifluoropropyl)-1H-indazol-7-yl)-4-oxo-7-(3,3,3-trifluoropropyl)-3,4-dihydroquinazolin-2-yl)ethyl)acetamide]	9.24	> 1000 nM
CS(=O)(=O)Nc1nn(CC(F)F)c2c(-n3c([C@H](Cc4cc(F)cc(F)c4)NC(=O)Cn4nc(C(F)F)c5c4C(F)(F)[C@@H]4C[C@H]54)nc4cc(CCC(F)(F)F)ccc4c3=O)ccc(Cl)c12 [Example 23, N—((S)-1-(3-(4-chloro-1-(2,2-difluoroethyl)-3-(methylsulfonamido)-1H-indazol-7-yl)-4-oxo-7-(3,3,3-trifluoropropyl)-3,4-dihydroquinazolin-2-yl)-2-(3,5-difluorophenyl)ethyl)-2-((3bS,4aR)-3-(difluoromethyl)-5,5-difluoro-3b,4,4a,5-tetrahydro-1H-cyclopropa[3,4]cyclopenta[1,2-c]pyrazol-1-yl)acetamide]	10.03	> 1000 nM
O=C(Cn1nc(C(F)F)c2c1C(F)(F)[C@@H]1C[C@H]21)N[C@@H](Cc1cc(F)cc(F)c1)c1nc2cc(CCC(F)(F)F)ccc2c(=O)n1-c1ccc(Cl)c2c(NS(=O)(=O)C3CC3)nn(CC(F)F)c12 [Example 24, N—((S)-1-(3-(4-chloro-3-(cyclopropanesulfonamido)-1-(2,2-difluoroethyl)-1H-indazol-7-yl)-4-oxo-7-(3,3,3-trifluoropropyl)-3,4-dihydroquinazolin-2-yl)-2-(3,5-difluorophenyl)ethyl)-2-((3bS,4aR)-3-(difluoromethyl)-5,5-difluoro-3b,4,4a,5-tetrahydro-1H-cyclopropa[3,4]cyclopenta[1,2-c]pyrazol-1-yl)acetamide]	9.81	> 1000 nM
